One test has as its target T1, SGLT-2 (Homo sapiens, UniProt P31639).
T1 sequence (P31639 1-672): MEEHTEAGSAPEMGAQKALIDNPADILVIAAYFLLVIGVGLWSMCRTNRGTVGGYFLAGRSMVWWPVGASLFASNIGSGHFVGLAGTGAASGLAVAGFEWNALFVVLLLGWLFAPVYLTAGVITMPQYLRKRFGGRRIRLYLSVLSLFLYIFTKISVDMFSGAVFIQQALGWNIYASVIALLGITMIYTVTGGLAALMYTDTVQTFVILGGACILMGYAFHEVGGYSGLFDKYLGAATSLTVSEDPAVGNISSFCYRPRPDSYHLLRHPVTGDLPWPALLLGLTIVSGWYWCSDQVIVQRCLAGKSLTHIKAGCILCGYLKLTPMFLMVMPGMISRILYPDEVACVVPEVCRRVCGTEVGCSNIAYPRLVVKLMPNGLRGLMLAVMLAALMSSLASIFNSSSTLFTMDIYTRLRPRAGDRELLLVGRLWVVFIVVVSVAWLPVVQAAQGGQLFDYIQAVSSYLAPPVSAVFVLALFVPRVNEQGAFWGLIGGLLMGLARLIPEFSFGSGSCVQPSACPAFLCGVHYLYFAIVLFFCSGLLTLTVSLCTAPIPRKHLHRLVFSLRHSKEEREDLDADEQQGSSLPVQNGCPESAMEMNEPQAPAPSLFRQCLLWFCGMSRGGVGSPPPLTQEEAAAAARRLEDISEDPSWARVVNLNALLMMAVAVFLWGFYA
Nature of the test: [14C]-AMG absorption in stable SGLT2 expressing Flp-in CHO cells (SGLT-2 activity screening assay). The format is cell-based. The note with it: 14C-AMG uptake, 37° C. 1 h, 1% DMSO. The source says:
(§1) Example 1: [^14C]-AMG Absorption in Stable SGLT1 and SGLT2 Expressing Flp-in CHO Cells (SGLT-1 and SGLT-2 Activity Screening Assay)
(§2) SGLT-1 and SGLT-2 cDNA clones were purchased from OriGene. After sequencing verification, the expression vectors were constructed based on pcDNA5/FRT using conventional molecular biology method. The expression vector was transfected into Flp-in CHO cells using Lipofectamin 2000. The transfected cells were subject hygromycin selection. The single clones of cells were selected by serial dilutions 4-5 weeks after transfection. The expression of SGLT-1 ? SGLT-2 were confirmed by RT-PCR and functional assay and cell line with strong signal was selected for subsequent study.
(§3) Culture of stable SGLT-1 and SGLT-2 expressing Flp-in CHO cell line: the culture media contain F12 medium (Invitrogen), 500 μg/ml hygromycin (Calbiochem) and 10% FBS (Invitrogen). Upon 80% confluency, the cells in the T75 flask were washed three times with PBS (Invitrogen), and 5 mL of Trpsin-EDTA solution (Invitrogen) was then added. The flask was gently rotated so that all the cells were submerged in the digestion solution. After the cells detach, 10 mL of culture medium was added and single cell suspension was prepared by pipetting up and down. The cell concentration was adjusted to 3×10^5/mL, 100 μL/well was added onto clear bottom 96-well plate (Corning).
(§4) The cells were ready for absorption assay once they attached after overnight culture. 12 h after cell plating, the cells were washed once with 150 μL/well absorption solution KRH-NMG (120 mM NMG, 4.7 mM KCl, 1.2 mM MgCl2, 2.2 mM CaCl2, 10 mM HEPES, pH 7.4 1 mM Tris). The solution was then removed from the well. 2.5 μCi/mL ^14C labeled AMG (PerkinElmer) Buffer KRH-Na+ (120 mM NaCl, 4.7 mM KCl, 1.2 mM MgCl2, 2.2 mM CaCl2, 10 mM HEPES, pH 7.4 1 mM Tris) was added at […] after washing with Buffer KRH-Na+ and KRH-NMG. The corresponding compound I was immediately added at 5 μL/well, ensuring the concentration of Dimethyl Sulfoxide was 1% (v/v). The plate was subsequently incubated at 37° C. for 1 h, after which 150 μL of ice cold wash buffer (120 mM NaCl, 4.7 mM KCl, 1.2 mM MgCl2, 2.2 mM CaCl2, 10 mM HEPES, 0.5 mM phlorizin, pH 7.4 1 mM Tris) was immediately added to terminate the reaction. Each well was washed three times with wash buffer and finally the solution was removed. Caution was taken to avoid cell detachment during the procedure. 20 μL/well of Lysis Buffer (0.1 mM NaOH) was added, the plate was vortexed at 900 rpm for 5 min. 80 μL/well of scintillation solution Microsint40 was added, and vortexed at 900 rpm for 5 min. The radioactivity was assayed using MicroBeta Trilux (PerkinElmer). The data was analyzed and IC50 of the compounds was calculated using XL-fit software.

A further test has as its system C57/BL6 mice. Nature of the test: Urinary glucose excretion test in C57/BL6 mice. The format is in vivo. The note with it: male C57/BL6 mice, 10 mg/Kg oral; for Glucose (excreted urine glucose): then 5 g/Kg glucose, total urine in 24 h, mean of 6 mice; for activity in urinary glucose excretion compared with compound A (Empagliflozin): 24 h urine, statement on Table 2. The method, then:
Example 2: Urinary Glucose Excretion Test in C57/BL6 Mice
Adult male C57/BL6 mice with body weight over 20 g (Shanghai LSK Laboratory Animal Ltd) were orally dosed with test compound I (10 mg/Kg) after which the animals were fed with 5 g/Kg glucose. The animals were housed in metabolic cages to collect total urine in 24 h. The cage was washed with 5 mL of normal saline. Water and food were provided to the mice ad libitum during the 24 h period. The urine samples were immediately frozen after collection, and the glucose levels were then determined. The total amount of excreted urine glucose was calculated based on total amount of urine, and then converted to amount of excreted glucose (mg) per 200 mg body weight in 24 h based on mouse body weight. The result is shown in Table 2 (mean values of 6 mice).

Another test concerns the target T2, SGLT-1 (Homo sapiens, UniProt P13866).
T2 sequence (P13866 1-664): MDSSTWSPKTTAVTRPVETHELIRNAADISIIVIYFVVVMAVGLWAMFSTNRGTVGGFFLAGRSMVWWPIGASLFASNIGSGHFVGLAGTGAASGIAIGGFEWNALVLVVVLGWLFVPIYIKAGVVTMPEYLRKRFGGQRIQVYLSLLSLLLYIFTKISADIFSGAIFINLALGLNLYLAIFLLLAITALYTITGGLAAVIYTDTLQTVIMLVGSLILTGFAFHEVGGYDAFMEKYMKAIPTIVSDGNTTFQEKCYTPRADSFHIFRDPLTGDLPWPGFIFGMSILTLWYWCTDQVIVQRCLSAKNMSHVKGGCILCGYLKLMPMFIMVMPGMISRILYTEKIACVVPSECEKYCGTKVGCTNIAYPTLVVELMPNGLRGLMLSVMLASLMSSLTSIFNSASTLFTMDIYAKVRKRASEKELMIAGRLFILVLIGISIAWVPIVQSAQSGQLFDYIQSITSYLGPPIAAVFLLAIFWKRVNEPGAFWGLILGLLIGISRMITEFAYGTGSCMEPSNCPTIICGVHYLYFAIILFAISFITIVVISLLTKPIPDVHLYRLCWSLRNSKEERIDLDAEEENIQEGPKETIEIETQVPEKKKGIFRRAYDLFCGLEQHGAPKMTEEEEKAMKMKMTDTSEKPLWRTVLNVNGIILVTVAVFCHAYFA
Kind of test: [14C]-AMG absorption in stable SGLT1 expressing Flp-in CHO cells (SGLT-1 activity screening assay). The note with it: 14C-AMG uptake, 37° C. 1 h, 1% DMSO. The format is cell-based.
Text: as §1, §2, §3, §4

One may read the IC50 as the concentration that inhibits the measured activity by half. In turn, `OC[C@H]1O[C@@H](c2ccc(Cl)c(Cc3ccc(O[C@H]4CCOC4)cc3)c2)[C@H](O)[C@@H](O)[C@@H]1O` [A, Empagliflozin, reference compound] displayed an IC50 against SGLT-2 of 6.6 nM. Further, the “Glucose (excreted urine glucose)” value in the test on C57/BL6 mice was 1536.5 mg/200 mg body weight/24 h.

In the case of `OC[C@H]1O[C@@H](c2ccc(Cl)c(Cc3ccc(OCc4cc5ccccc5o4)cc3)c2)[C@H](O)[C@@H](O)[C@@H]1O` [Compound I-1, (2S,3R,4R,5S,6R)-2-(3-(4-(benzofuran-2-ylmethoxy)benzyl)-4-chlorophenyl)-6-(hydroxymethyl)tetrahydro-2H-pyran-3,4,5-triol], the IC50 at SGLT-2 stood at 7 nM. Also, in the test with C57/BL6 mice, the “activity in urinary glucose excretion compared with compound A (Empagliflozin)” value was “significantly more active than compound A” and the “Glucose (excreted urine glucose)” value was 1646.9 mg/200 mg body weight/24 h.

`OC[C@H]1O[C@@H](c2ccc(Cl)c(Cc3ccc(OCC4Cc5ccccc5O4)cc3)c2)[C@H](O)[C@@H](O)[C@@H]1O` (stereo partly drawn) [Compound I-22, (2S,3R,4R,5S,6R)-2-(4-chloro-3-(4-((2,3-dihydrobenzofuran-2-yl)methoxy)benzyl)phenyl)-6-(hydroxymethyl)tetrahydro-2H-pyran-3,4,5-triol]: the values for the IC50 against SGLT-2 and against SGLT-1 were 4.1 nM and 2100 nM, respectively. In addition, in the test with C57/BL6 mice, the “activity in urinary glucose excretion compared with compound A (Empagliflozin)” value was “significantly more active than compound A”. For the same compound, the “Glucose (excreted urine glucose)” value in the test on C57/BL6 mice is on record as 3106.6 mg/200 mg body weight/24 h.

As to `OC[C@H]1O[C@@H](c2ccc(Cl)c(Cc3ccc(OCC4Cc5ccc(F)cc5O4)cc3)c2)[C@H](O)[C@@H](O)[C@@H]1O` (stereo partly drawn) [Compound I-33, (2S,3R,4R,5S,6R)-2-(4-chloro-3-(4-((6-fluoro-2,3-dihydrobenzofuran-2-yl)methoxy)benzyl)phenyl)-6-(hydroxymethyl)tetrahydro-2H-pyran-3,4,5-triol], the IC50 against SGLT-2 is 6.2 nM; against SGLT-1, 599 nM.

As to `OC[C@H]1O[C@@H](c2ccc(Cl)c(Cc3ccc(OCC4Cc5cccc(F)c5O4)cc3)c2)[C@H](O)[C@@H](O)[C@@H]1O` (stereo partly drawn) [Compound I-34, (2S,3R,4R,5S,6R)-2-(4-chloro-3-(4-((7-fluoro-2,3-dihydrobenzofuran-2-yl)methoxy)benzyl)phenyl)-6-(hydroxymethyl)tetrahydro-2H-pyran-3,4,5-triol], the IC50 at SGLT-2 came out at 4.5 nM; against SGLT-1 it was 141 nM.

Take `OC[C@H]1O[C@@H](c2ccc(Cl)c(Cc3ccc(OCC4OCc5ccccc54)cc3)c2)[C@H](O)[C@@H](O)[C@@H]1O` (stereo partly drawn) [Compound I-36, (2S,3R,4R,5S,6R)-2-(4-chloro-3-(4-((1,3-dihydroisobenzofuran-1-yl)methoxy)benzyl)phenyl)-6-(hydroxymethyl)tetrahydro-2H-pyran-3,4,5-triol]: the IC50 at SGLT-2 came out at 1 nM; at SGLT-1, 584 nM. The “Glucose (excreted urine glucose)” value in the test on C57/BL6 mice was 1723.1 mg/200 mg body weight/24 h.

For the compound `OC[C@H]1O[C@@H](c2ccc(Cl)c(Cc3ccc(OC[C@H]4OCc5ccccc54)cc3)c2)[C@H](O)[C@@H](O)[C@@H]1O` [Compound I-37, (2S,3R,4R,5S,6R)-2-(4-chloro-3-(4-(((S)-1,3-dihydroisobenzofuran-1-yl)methoxy)benzyl)phenyl)-6-(hydroxymethyl)tetrahydro-2H-pyran-3,4,5-triol], the IC50 worked out at 2 nM against SGLT-2 and 615 nM against SGLT-1.

On to `OC[C@H]1O[C@@H](c2ccc(Cl)c(Cc3ccc(OC[C@@H]4OCc5ccccc54)cc3)c2)[C@H](O)[C@@H](O)[C@@H]1O` [Compound I-38, (2S,3R,4R,5S,6R)-2-(4-chloro-3-(4-(((R)-1,3-dihydroisobenzofuran-1-yl)methoxy)benzyl)phenyl)-6-(hydroxymethyl)tetrahydro-2H-pyran-3,4,5-triol], for which the IC50 on SGLT-2 was found to be 1 nM; on SGLT-1, 608 nM.

Turning to `Cc1ccc([C@@H]2O[C@H](CO)[C@@H](O)[C@H](O)[C@H]2O)cc1Cc1ccc(OCC2OCc3ccccc32)cc1` (stereo partly drawn) [Compound I-43, (2S,3R,4R,5S,6R)-2-(3-(4-((1,3-dihydroisobenzofuran-1-yl)methoxy)benzyl)-4-methylphenyl)-6-(hydroxymethyl)tetrahydro-2H-pyran-3,4,5-triol], the IC50 is 1.7 nM on SGLT-2 and 322 nM at SGLT-1.

For the compound `CC1(COc2ccc(Cc3cc([C@@H]4O[C@H](CO)[C@@H](O)[C@H](O)[C@H]4O)ccc3Cl)cc2)OCc2ccccc21` (stereo partly drawn) [Compound I-108, (2S,3R,4R,5S,6R)-2-(4-chloro-3-(4-((1-methyl-1,3-dihydroisobenzofuran-1-yl)methoxy)benzyl)phenyl)-6-(hydroxymethyl)tetrahydro-2H-pyran-3,4,5-triol], the IC50 stood at 10.2 nM against SGLT-2 and 1810 nM on SGLT-1.

Take `Cc1ccc([C@@H]2O[C@H](CO)[C@@H](O)[C@H](O)[C@H]2O)cc1Cc1ccc(OCC2(C)OCc3ccccc32)cc1` (stereo partly drawn) [Compound I-112, (2S,3R,4R,5S,6R)-2-(3-(4-((1-methyl-1,3-dihydroisobenzofuran-1-yl)methoxy)benzyl)-4-methylphenyl)-6-(hydroxymethyl)tetrahydro-2H-pyran-3,4,5-triol]: the results for the IC50 against SGLT-2 and against SGLT-1 were 8 nM and 179 nM, respectively.

The values above are taken from patent publication US9914724B2, “C-aryl glycosid derivatives, pharmaceutical composition, preparation process and uses thereof” (SHANGHAI DE NOVO PHARMATECH CO. LTD., priority 2014, dated 2018).
